Data from paper PMC13022995 (Environmental science & technology, 2025).
Like-named read-outs stand apart in the source and are kept apart here.

What was measured:
[1] = test system: HepG2 cells; assay type: cell-based, human
[2] = test system: p53RE-bla HCT116 cells; assay type: cell-based, human
[3] = test system: hTERT-MSCs and aortic ECs (TeloHAECs) co-culture; assay type: cell-based, human
[4] = test system: liver, renal, bladder, and lung cells

SMILES	angiogenesis induction [3]	cytotoxicity of single compound [4]	other results
O.O.O.O.O=S(=O)([O-])[O-].[Be+2] [beryllium sulfate tetrahydrate]	–	–	ROS induction ([1]; HepG2 cells): not detected; p53 activation [2]: activated p53
O=[As]O[As]=O (stereo not drawn) [arsenic oxide]	–	–	ROS induction ([1]; HepG2 cells): not detected
[Cl][Cd][Cl] [cadmium chloride]	independently induce angiogenesis	cytotoxic by themselves	–
CC(=O)[O-].CC(=O)[O-].O.O.[Cd+2] [cadmium acetate dihydrate, Cadmium acetate dihydrate]	independently induce angiogenesis	cytotoxic by themselves	–
O.O.O.O.O.O.O=S(=O)([O-])[O-].[Ni+2] [nickel sulfate, nickel(II) sulfate hexahydrate]	–	–	ROS induction [1]: not detected
O.O.O.O.O=[N+]([O-])[O-].O=[N+]([O-])[O-].[Cd+2] [cadmium nitrate tetrahydrate, Cadmium nitrate tetrahydrate]	independently induce angiogenesis	cytotoxic by themselves	oxidative stress-inducing capability ([1]; among components of Mixture 1, Supporting Table 3): exhibited oxidative stress-inducing capability
[Cl][Pb][Cl] [lead(II) chloride, Lead(II) chloride]	induced angiogenesis	cytotoxic by themselves	–
CC(=O)[O-].CC(=O)[O-].O.O.O.[Pb+2] [lead(II) acetate trihydrate]	–	cytotoxic by themselves	–
O=[N+]([O-])c1ccc([As](=O)(O)O)cc1 [nitarsone, Nitarsone]	induced angiogenesis	–	–
